# Experiment: aqueous solubility of the starting material
# Format: physicochemical
# Conditions: aqueous buffer; 25° C., 20 mM phosphate buffer, pH 7; read-out: water solubility (aqueous solubility limit)
# Description: The enzyme-catalyzed conversion of II to I can be carried out by contacting II with the enzyme catalyst in an aqueous reaction mixture. Compound II, the starting material, which is only moderately water soluble, (ca. 10 mM, 25° C., 20 mM phosphate buffer, pH 7), can be added to an aqueous reaction containing the enzyme catalyst at levels exceeding its aqueous solubility limit. Thus reaction mixtures initially consist of two phases, an aqueous phase containing dissolved II and the enzyme catalyst, and a solid phase containing undissolved II. At complete conversion of II, a single phase containing compound I and the enzyme catalyst remains. The enzyme catalyzed conversion of II to I can be carried out with levels of compound II from about 0.1 g/L to 148 g/L, with a preferred range of about 0.1 g/L to 90 g/L. The enzyme catalyst concentrations used in the present invention depend on the specific activity of the enzyme catalyst and is chosen to obtain the desired rate of reaction.
smiles,measurement,value
"N#CCC1(C#N)CCCCC1 [Compound II, 1-cyanocyclohexaneacetonitrile]",solubility,~10 mM

# Source: patent publication US20050009154A1, “Biocatalytic preparation of 1-cyano-cyclohexaneacetic acid” (Pfizer Inc, priority 2003, published 2005)
